Changes are numbered by the printed parent chain.
Legend:
AKR1C1-3 = experiment: Isoform profile across the AKR1C enzymes; type: biochemical, human; details: 1-acenaphthenol oxidation, NAD+, pH 9.0
AKR1C2 = biological target: T1, AKR1C2 (Homo sapiens, UniProt P52895); experiment: Spectrophotometric inhibition assay, 1-acenaphthenol oxidation with NAD+; type: biochemical; details: pH 9.0, screening at 400 μM
T1 sequence (P52895 1-323): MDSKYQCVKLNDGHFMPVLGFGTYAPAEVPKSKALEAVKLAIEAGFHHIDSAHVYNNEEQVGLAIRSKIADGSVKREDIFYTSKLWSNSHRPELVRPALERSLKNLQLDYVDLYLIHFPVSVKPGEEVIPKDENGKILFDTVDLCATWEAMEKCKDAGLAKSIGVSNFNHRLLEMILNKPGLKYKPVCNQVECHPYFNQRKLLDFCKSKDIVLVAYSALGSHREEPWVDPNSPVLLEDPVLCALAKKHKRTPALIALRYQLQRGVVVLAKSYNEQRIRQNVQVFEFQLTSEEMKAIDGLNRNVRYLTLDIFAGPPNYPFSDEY

AKR1C3 = biological target: T2, AKR1C3 (Homo sapiens, UniProt P42330); experiment: as above; type: biochemical; details: pH 9.0, screening at 400 μM
T2 sequence (P42330 1-323): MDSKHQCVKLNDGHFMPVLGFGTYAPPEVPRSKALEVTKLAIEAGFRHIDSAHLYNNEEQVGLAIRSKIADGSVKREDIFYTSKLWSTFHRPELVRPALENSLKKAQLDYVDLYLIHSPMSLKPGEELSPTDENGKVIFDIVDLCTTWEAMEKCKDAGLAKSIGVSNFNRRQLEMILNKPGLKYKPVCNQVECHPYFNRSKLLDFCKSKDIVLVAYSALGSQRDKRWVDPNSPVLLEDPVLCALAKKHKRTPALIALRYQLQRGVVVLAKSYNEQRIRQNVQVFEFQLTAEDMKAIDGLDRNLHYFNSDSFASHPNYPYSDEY

AKR1C1 = biological target: T3, AKR1C1 (Homo sapiens, UniProt Q04828); experiment: as above; type: biochemical; details: pH 9.0, screening at 400 μM
T3 sequence (Q04828 1-323): T1 sequence (P52895 1-323) with V38T, H47R, V54L, S87C, M151V, H170R, L172Q

SMILES	inhibition profile / isoform selectivity on AKR1C enzymes (in words) (AKR1C1-3)	inhibition of AKR1C2 (in words) (AKR1C2)	inhibition of AKR1C3 (in words) (AKR1C3)	inhibition of AKR1C1 (in words) (AKR1C1)
NC(=O)c1ccccc1/N=C/c1cccc(O)c1 [Compound 5, 2-(3-hydroxybenzylideneamino)benzamide]	selective AKR1C3 inhibitor	–	–	–
Cc1oc(C(N)=O)cc1COc1ccccc1C(N)=O [Compound 4, 4-((2-carbamoylphenoxy)methyl)-5-methylfuran-2-carboxamide]	partially selective towards AKR1C1	moderate inhibitor	moderate inhibitor	–
Cc1cc(C(=O)Nc2ccc(O)c(C(=O)O)c2)oc1C [Compound 3, 5-(4,5-dimethylfuran-2-carboxamido)-salicylic acid]	selective AKR1C3 inhibitor	very low inhibition	–	no observable inhibition
O=C(O)c1cc(NC(=O)c2ccccc2F)ccc1O [Compound 1, 5-(2-fluorobenzamido)salicylic acid]	–	–	moderate	–
NC(=O)c1ccccc1NC(=O)c1ccncc1 [Compound 7]	low inhibitory effect	–	–	–
O=C(O)c1ccc(CNCc2ccccn2)cc1 [Compound 18]	–	–	moderate	–
O=C(CSc1ncnc2[nH]cnc12)Nc1ccccn1 [Compound 25, 2-((9H-purin-6-yl)thio)-N-(pyridin-2-yl)acetamide]	selective AKR1C1 inhibitor	–	–	–
CC(=O)Nc1ccc(C(C#N)c2ccccc2)cc1 (stereo not shown) [Compound 24, N-(4-(cyano(phenyl)methyl)phenyl)acetamide]	–	moderate inhibitor	–	–
O=C(NCc1cc(=O)[nH]cn1)c1cc2ccccn2n1 [Compound 27, N-((6-oxo-1,6-dihydropyrimidin-4-yl)methyl)pyrazolo[1,5-a]pyridine-2-carboxamide]	selective AKR1C3 inhibitors	–	–	–
Cc1ccc(NC(=O)c2cccnc2)c(C(=O)O)c1 [Compound 10]	–	–	weak inhibitor	weak inhibitor
Cc1cccc(C(=O)Nc2ccccc2C(N)=O)c1 [Compound 8]	low inhibitory effect	–	–	–

Reference: PMC3470935 (Journal of medicinal chemistry, 2012)
